In ChEMBL document CHEMBL1201862, “PubChem BioAssay data set” (2004):
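Test compounds were applied to cells in 96-well plates for 48 hours at 5 doses. The concentration for 50% growth inhibition is given as GI50.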 Active and inactive are the calls of the source. No stated cut-off is given here; in the data, active = GI50 up to about 1.1 µM and inactive = higher.

Legend:
Assay in all cases: inhibition of tumour cell growth, NCI panel, 48 h
DMS-114 = test system: DMS-114
M19-MEL = test system: M19-MEL
SNB-78 = test system: SNB-78
KM-20L2 = test system: KM-20L2
XF498 = test system: XF498
LXFL 529 = test system: LXFL 529
RXF 631 = test system: RXF 631
HOP-18 = test system: HOP-18

Row | SMILES | GI50 (DMS-114) | GI50 (M19-MEL) | GI50 (SNB-78) | GI50 (KM-20L2) | GI50 (XF498) | GI50 (LXFL 529) | GI50 (RXF 631) | GI50 (HOP-18)
1 | COC(=O)c1cc2cc(OC)c(OC)cc2cc(C(=O)OC)c1=O | 29.6 µM (inactive) | > 100 µM (inactive) | > 100 µM (inactive) | > 100 µM (inactive) | > 100 µM (inactive) | > 100 µM (inactive) | > 100 µM (inactive) | > 100 µM (inactive)
2 | COc1cc2c([C@@H](OC(=O)c3ccccc3)c3ccc4c(c3)OCO4)nccc2c(OC)c1OC | 16.4 µM (inactive) | 42.2 µM (inactive) | 85.7 µM (inactive) | 42.1 µM (inactive) | 13.6 µM (inactive) | 16.7 µM (inactive) | 20.5 µM (inactive) | > 100 µM (inactive)
3 | CC(O)c1ccc[n+](Cc2ccccc2)c1 (configuration not stated) | > 400 µM (inactive) | > 400 µM (inactive) | – | > 400 µM (inactive) | > 400 µM (inactive) | > 400 µM (inactive) | > 400 µM (inactive) | > 400 µM (inactive)
4 | N#CC(C(=O)/C(=N/N)C(C#N)c1ccccc1)c1ccccc1 (configuration not stated) | > 100 µM (inactive) | > 100 µM (inactive) | > 100 µM (inactive) | – | > 100 µM (inactive) | > 100 µM (inactive) | > 100 µM (inactive) | > 100 µM (inactive)
5 | c1cncc(C2c3[nH]c4ccccc4c3CCN2CCN2CCCCC2)c1 (configuration not stated) | > 100 µM (inactive) | > 100 µM (inactive) | > 100 µM (inactive) | > 100 µM (inactive) | > 100 µM (inactive) | > 100 µM (inactive) | > 100 µM (inactive) | > 100 µM (inactive)
6 | CN(C)CCNC(=O)c1ccc(Cl)c2c(Nc3ccc(S(N)(=O)=O)cc3)c3ccccc3nc12 | 1.76 µM (inactive) | 1.63 µM (inactive) | – | 2.68 µM (inactive) | 0.165 µM (active) | 0.564 µM (active) | 0.566 µM (active) | 2.2 µM (inactive)
7 | CCOC(=O)/C(=C/c1cccc(C#N)c1)N(CC)CC | > 100 µM (inactive) | > 100 µM (inactive) | > 100 µM (inactive) | – | > 100 µM (inactive) | > 100 µM (inactive) | > 100 µM (inactive) | > 100 µM (inactive)
